The source of these data is patent publication US20220256854A1, “PLANT TREATMENT COMPOSITION” (Croda International Plc, priority 2019, published 2022).

Common to all, as to type: in vivo
Series [1] relates to Ipomoea acuminate. Kind of series: Field trial, glufosinate with Formulation A, weed control (Example 4). To be noted: Formulation A @ 1 l/ha where applied, mean of 7, 14, 28 daa. How it is done: (§1) A study was conducted to evaluate the effect of an Mn formulation on glufosinate efficacy, as measured by the control of individual grass and broadleaf weed species.
(§2) The trial was designed as a randomized complete block with three replications of four treatments (Table 9). The trial was planted at one location in Brazil during March 2016. Weed control was assessed 7, 14, and 28 daa.

Series [2] concerns Brachiaria decumbens. The series is described as above. To be noted: Formulation A @ 1 l/ha where applied, mean of 7, 14, 28 daa. How it is done:
as §1, §2

The test system of series [3] is Digitaria horizontalis. Described as above. The settings on record: Formulation A @ 1 l/ha where applied, mean of 7, 14, 28 daa. How it is done: as §1, §2
Series [4] deals with Brachiaria plantaginea. Described as above. To be noted: Formulation A @ 1 l/ha where applied, mean of 7, 14, 28 daa. How it is done: as §1, §2
Series [5] deals with Cenchrus echinatus. Described as above. To be noted: Formulation A @ 1 l/ha where applied, mean of 7, 14, 28 daa. How it is done:
as §1, §2

Series [6] concerns Brachiaria decumbens. The series is described as follows: Glufosinate absorption in Brachiaria decumbens with Mn formulations (Example 1, Study 1). To be noted: glufosinate 2 l/ha; Mn formulation at 100 g/ha Mn where applied; 36 hours after application. How it is done:
(§3) Studies were conducted to evaluate the effect of an Mn formulation containing manganese on the absorption of glufosinate (Study 1) and glyphosate (Study 2) using Brachiaria decumbens as a model weed species.
Study 1. Seed of Brachiaria decumbens were planted into pots in a greenhouse during January 2015. This experiment was designed as a randomized complete block with six replications. Each plant was sprayed in a spray chamber with one of six treatments (Table 1) 19 days after planting.
The amount of glufosinate on the plant surface (not absorbed) and that penetrated plant tissue (absorbed) was measured 36 hours after application of a treatment using chromatography and spectrometry.

In series [7] the test system is individual grass and broadleaf weed species. The series is described as follows: Field trial, glufosinate with Formulation A, weed control, average over five weed species (Example 4). To be noted: Formulation A @ 1 l/ha where applied, average of five weed species. How it is done:
as §1, §2

Series [8] deals with weed species. The series is described as follows: Field trial, glyphosate with K formulation, weed control (Example 5, Study 2). To be noted: Glyphosate @ 2 l/ha, Formulation @ 5 l/ha where applied. How it is done: (§4) Three studies were conducted to evaluate the effect of a K formulation on glyphosate efficacy, as measured by the control of weed species.
Study 2. The trial was designed as a randomized complete block with two replications of six treatments (Table 13). The trial was planted at one location in Brazil during 2011. Weed control was assessed 14 and 25 daa.

The test system of series [9] is individual grass and broadleaf weed species. The series is described as follows: Field trial, glyphosate with Formulation A, weed control, average over seven weed species (Example 3). To be noted: Formulation A @ 1 l/ha where applied, average of seven weed species. How it is done: (§5) A study was conducted to evaluate the effect of an Mn formulation on glyphosate efficacy, as measured by the control of individual grass and broadleaf weed species.
(§6) The trial was designed as a randomized complete block with three replications of four treatments (Table 7). The trial was planted at one location in Brazil during March 2016. Weed control was assessed 7, 14, and 28 daa.

Series [10] relates to weed species. The series is described as follows: Field trial, glyphosate with K formulation, weed control (Example 5, Study 1). The settings on record: Glyphosate @ 2 l/ha, no formulation. How it is done:
as §4
Study 1. The trial was designed as a randomized complete block with two replications of five treatments (Table 11). The trial was planted at one location in Brazil during 2011. Weed control was assessed 14 and 25 daa.

Another series concerns Grass weeds. Kind of series: Field trial, glyphosate with Mn formulation, control of grass weeds (Example 2). The settings on record: glyphosate 1 l/ha; V2 soybean growth stage; 7 daa; six locations in Brazil. How it is done:
(§7) A study was carried out to evaluate the effect of an Mn formulation on the efficacy of glyphosate, as measured by the control of broadleaf and grass weed species.
(§8) The trial was designed as a randomized complete block with six replications of five treatments (Table 5). The trial was planted at each of six locations in Brazil during the 2015 season. All treatments were applied at the V2 soybean growth stage using backpack sprayers. Soybeans were sown at a rate consistent with locally recommended practices into plots that were approximately 4 m long and 5 m wide.
(§9) Data collected from a 1 m^2 area of each plot included the number of broadleaf and grass weeds, by genus and species, at the V2 soybean growth stage immediately prior to treatment application. The number of dead/damaged and undamaged weeds, by genus and species, was collected from the same 1 m^2 area of each plot 7 daa of a treatment. Treatment 2 (glyphosate alone) was used as the control.

In a further series the test system is Broadleaf weeds. The series is described as follows: Field trial, glyphosate with Mn formulation, control of broadleaf weeds (Example 2). The settings on record: glyphosate 1 l/ha; V2 soybean growth stage; 7 daa; six locations in Brazil. How it is done: as §7, §8, §9
Series [11] concerns weed species. Kind of series: Field trial, glyphosate with K formulation, weed control (Example 5, Study 3). The settings on record: Glyphosate @ 2 l/ha, Formulation @ 5 l/ha where applied. How it is done:
as §4
Study 3. The trial was designed as a randomized complete block with two replications of six treatments (Table 15). The trial was planted at one location in Brazil during 2011. Weed control was assessed 14 and 25 daa.

Series [12] relates to Ipomoea acuminate. Kind of series: Field trial, glyphosate with Formulation A, weed control (Example 3). The settings on record: Formulation A @ 1 l/ha where applied, mean of 7, 14, 28 daa. How it is done: as §5, §6
The test system of another series is Euphorbia heterophylla. The series is described as above. The settings on record: Formulation A @ 1 l/ha where applied, mean of 7, 14, 28 daa. How it is done:
as §5, §6

Series [13] has as its system Brachiaria decumbens. The description is as above. The settings on record: Formulation A @ 1 l/ha where applied, mean of 7, 14, 28 daa. How it is done:
as §5, §6

The test system of another series is Amaranthus retroflexus. Described as above. To be noted: Formulation A @ 1 l/ha where applied, mean of 7, 14, 28 daa. How it is done: as §5, §6
For series [14], the system named is Digitaria horizontalis. Described as above. To be noted: Formulation A @ 1 l/ha where applied, mean of 7, 14, 28 daa. How it is done:
as §5, §6

For series [15], the system named is Brachiaria plantaginea. The series is described as above. The settings on record: Formulation A @ 1 l/ha where applied, mean of 7, 14, 28 daa. How it is done: as §5, §6
Series [16] concerns Cenchrus echinatus. Described as above. The settings on record: Formulation A @ 1 l/ha where applied, mean of 7, 14, 28 daa. How it is done: as §5, §6
In series [17] the test system is Brachiaria decumbens. The series is described as follows: Glyphosate absorption in Brachiaria decumbens with Mn formulations (Example 1, Study 2). To be noted: glyphosate 3.5 l/ha; Mn formulation at 100 g/ha Mn where applied; four days after application. How it is done: as §3
Study 2. Seed of Brachiaria decumbens were planted into pots in a greenhouse during January 2015. This experiment was designed as a randomized complete block with six replications. Each plant was sprayed in a spray chamber with one of six treatments (Table 3) 25 days after planting.
The amount of glyphosate on the plant surface (not absorbed) and that penetrated plant tissue (absorbed) was measured four days after application (daa) of a treatment using chromatography and spectrometry.

Take `CP(=O)(O)CCC(N)C(=O)O` (centres unmarked) [Glufosinate, glufosinate]: the “Weed control (%) IPOAC” value with Ipomoea acuminate [1] (Glufosinate @ 1.5 l/ha) was determined as 96.7%; with Ipomoea acuminate [1] (Glufosinate @ 2.5 l/ha) it was 100.0%. Also, the “Weed control (%) BRADC” value was 89.3% in the series with Brachiaria decumbens [2] (Glufosinate @ 1.5 l/ha) and 91.1% in the series on Brachiaria decumbens [2] (Glufosinate @ 2.5 l/ha). Further, the “Weed control (%) DIGHO” value with Digitaria horizontalis [3] (Glufosinate @ 1.5 l/ha) was 67.0%; in the series with Digitaria horizontalis [3] (Glufosinate @ 2.5 l/ha), 82.9%. In addition, the “Weed control (%) BRAPL” value worked out at 78.6% in the series on Brachiaria plantaginea [4] (Glufosinate @ 1.5 l/ha) and 88.2% in the series on Brachiaria plantaginea [4] (Glufosinate @ 2.5 l/ha). The “Weed control (%) CCHEC” value with Cenchrus echinatus [5] (Glufosinate @ 1.5 l/ha) is 62.8%; in the series with Cenchrus echinatus [5] (Glufosinate @ 2.5 l/ha), 78.7%. Further, the “Glufosinate Absorbed (%)” value in the series on Brachiaria decumbens [6] was determined as 24.0%. Also, the “Weed control (%) Ave” value in series [7] (Glufosinate @ 1.5 l/ha) amounted to 78.9%; in [7] (Glufosinate @ 2.5 l/ha), 88.2%.
Regarding `O=C(O)CNCP(=O)(O)O` [Glyphosate, glyphosate], the “Weed control (%) 14 daa” value in the series with weed species [8] (14 daa) was found to be 82.5%; in the series on weed species [10] (14 daa), 85%; in the series with weed species [11] (14 daa), 85%. Besides, the “Weed control (%) 25 daa” value was 96.5% in the series with weed species [8] (25 daa), 96.5% in the series with weed species [10] (25 daa) and 90% with weed species [11] (25 daa). Besides, the entries for the “Weed control (%) Ave” value in [9] (Glyphosate @ 1 l/ha) and in series [9] (Glyphosate @ 2 l/ha) were 76.5% and 85.5%, respectively. The “Weed control (%) Grass weeds” value in the series with Grass weeds was 97.7%. Further, the “Weed control (%) Broadleaf weeds” value in the series on Broadleaf weeds was 83.8%. The “Weed control (%) IPOA” value with Ipomoea acuminate [12] (Glyphosate @ 1 l/ha) amounted to 34.8%; in the series with Ipomoea acuminate [12] (Glyphosate @ 2 l/ha), 52.6%. The “Weed control (%) EPHHL” value is recorded as 65.4% in the series on Euphorbia heterophylla (Glyphosate @ 1 l/ha) and 77.4% in the series on Euphorbia heterophylla (Glyphosate @ 2 l/ha). Besides, the “Weed control (%) BRADC” value was determined as 83.0% in the series on Brachiaria decumbens [13] (Glyphosate @ 1 l/ha) and 90.2% with Brachiaria decumbens [13] (Glyphosate @ 2 l/ha). In addition, the figures for the “Weed control (%) AMARE” value with Amaranthus retroflexus (Glyphosate @ 1 l/ha) and with Amaranthus retroflexus (Glyphosate @ 2 l/ha) were 69.6% and 84.7%, respectively. Moreover, the “Weed control (%) DIGHO” value in the series on Digitaria horizontalis [14] (Glyphosate @ 1 l/ha) is reported as 96.3%; in the series on Digitaria horizontalis [14] (Glyphosate @ 2 l/ha), 99.0%. For the same compound, the “Weed control (%) BRAPL” value with Brachiaria plantaginea [15] (Glyphosate @ 1 l/ha) came out at 91.2%; in the series with Brachiaria plantaginea [15] (Glyphosate @ 2 l/ha), 95.9%. The “Weed control (%) CCHEC” value with Cenchrus echinatus [16] (Glyphosate @ 1 l/ha) is listed as 95.0%; in the series on Cenchrus echinatus [16] (Glyphosate @ 2 l/ha), 98.7%. Further, in the series with Brachiaria decumbens [17], the “Glyphosate Absorbed (%)” value is reported as 21.0%.
